Data published in the Deep4Chem optical property database.
Several values for one entry are separate records, joined by “and”; a condition that tells them apart may be missing. Equal values may be shown once.

Test: solvent given as SMILES
[1] = in c1cc(-n2c3ccccc3c3ccccc32)cc(-n2c3ccccc3c3ccccc32)c1

## C(=C\c1ccc(N(c2ccc(/C=C/c3ccc(N(c4ccccc4)c4ccccc4)cc3)cc2)c2ccc(-c3nc4ccccc4nc3-c3ccc(N(c4ccc(/C=C/c5ccc(N(c6ccccc6)c6ccccc6)cc5)cc4)c4ccc(/C=C/c5ccc(N(c6ccccc6)c6ccccc6)cc5)cc4)cc3)cc2)cc1)/c1ccc(N(c2ccccc2)c2ccccc2)cc1
In C1CCOC1
  fluorescence lifetime: 1.5 ns

## CCCCOC(=O)c1cc(Cl)c2c3c(Cl)cc4c5c(cc(Cl)c(c6c(Oc7ccc(C(=O)OC)cc7)cc(C(=O)OCCCC)c1c26)c53)C(=O)N(c1c(C(C)C)cccc1C(C)C)C4=O
In Cc1ccccc1
  fluorescence lifetime: 6.09 ns

## CCCCCCN(CCCCCC)c1ccc(C#Cc2ccc(C#Cc3ccc(-c4ccc(C#Cc5ccc(C#Cc6ccc(N(CCCCCC)CCCCCC)cc6)cc5)cc4)cc3)cc2)cc1
In Cc1ccccc1
  fluorescence lifetime: 0.8 ns

## CC(C)(C)c1ccc2c(c1)c1cc(C(C)(C)C)ccc1n2-c1ccc(C#Cc2cccc(C#Cc3ccc(-n4c5ccc(C(C)(C)C)cc5c5cc(C(C)(C)C)ccc54)cc3)c2)cc1
In CC#N
  fluorescence lifetime: 5.51 ns
In CCCCC
  fluorescence lifetime: 1.38 ns
In CO
  fluorescence lifetime: 4.88 ns
In Cc1ccccc1
  fluorescence lifetime: 1.65 ns
In ClC(Cl)Cl
  fluorescence lifetime: 2.51 ns
In ClCCl
  fluorescence lifetime: 3.62 ns

## CCC1=C(C)C2=C(C)c3c(C)c(CC)c(C)n3[B-](F)(F)[N+]2=C1C
In C1CCCCC1
  fluorescence lifetime: 5.6 ns
In C1CCOC1
  fluorescence lifetime: 5.63 ns
In C1COCCO1
  fluorescence lifetime: 5.48 ns
In CC#N
  fluorescence lifetime: 5.96 ns
In CC(C)=O
  fluorescence lifetime: 5.92 ns
In CC(C)O
  fluorescence lifetime: 6.04 ns
In CCC(C)C
  fluorescence lifetime: 6.28 ns
In CCCCCC
  fluorescence lifetime: 5.9 ns
In CCCCCCCC
  fluorescence lifetime: 5.84 ns
In CCCCCCCCCCO
  fluorescence lifetime: 5.71 ns
In CCCCCCCCO
  fluorescence lifetime: 5.9 ns
In CCCCCCO
  fluorescence lifetime: 5.78 ns
In CCCCO
  fluorescence lifetime: 5.98 ns
In CCCO
  fluorescence lifetime: 6.01 ns
In CCO
  fluorescence lifetime: 6.09 ns
In CCOC(C)=O
  fluorescence lifetime: 5.78 ns
In CCOCC
  fluorescence lifetime: 6.21 ns
In CN1CCCC1=O
  fluorescence lifetime: 5.56 ns
In CN(C)C=O
  fluorescence lifetime: 5.57 ns
In CO
  fluorescence lifetime: 6.1 ns
In Cc1ccccc1
  fluorescence lifetime: 5.07 ns
In OCC(F)(F)F
  fluorescence lifetime: 6.94 ns
In OCCO
  fluorescence lifetime: 5.8 ns
In OCCOc1ccccc1
  fluorescence lifetime: 5.46 ns
In c1ccccc1
  fluorescence lifetime: 5 ns

## COC(=O)c1cc(=O)n(C)c2cc(-c3cccc(N(C)C)c3)sc12
In ClCCl
  fluorescence lifetime: 2.64 ns

## COc1ccc(N2c3cc(OC)ccc3N=c3cc4c(cc32)=Nc2cc(C(C)(C)C)cc(C(C)(C)C)c2O4)cc1
In CCCCCC
  fluorescence lifetime: 1.14 ns

## c1ccc(N2c3ccc4ccccc4c3-c3c4ccccc4cn[n+]3[B-]2(c2ccccc2)c2ccccc2)cc1
In Cc1ccccc1
  fluorescence lifetime: 2.56 ns

## CCN(CC)c1ccc2cc(C#N)/c(=N\C(=O)C(C)C)oc2c1
In ClCCl
  fluorescence lifetime: 3.1 ns

## CCOC(=O)CN(CC(=O)OCC)c1ccc(-c2cc(-c3ccncc3)nc(-c3ccncc3)c2)cc1
In CC#N
  fluorescence lifetime: 5.84 ns
In CCOC(C)=O
  fluorescence lifetime: 3.77 ns
In CN(C)C=O
  fluorescence lifetime: 6.33 ns
In CS(C)=O
  fluorescence lifetime: 6.78 ns
In c1ccccc1
  fluorescence lifetime: 2 ns

## COc1ccc(/C=C/c2nc3c4ccccc4c4ccccc4c3o2)cc1
In CC#N
  fluorescence lifetime: 0.97 ns

## F[B-]1(F)OC(c2cccc(Br)c2)=Cc2c3ccccc3cc[n+]21
In ClC(Cl)Cl
  fluorescence lifetime: 0.173 ns

## CC(=O)O[B-]1(OC(C)=O)OC(/C=C/C=C/c2ccccc2)=CC(/C=C/C=C/c2ccccc2)=[O+]1
In C1CCOC1
  fluorescence lifetime: 2.38 ns
In CC#N
  fluorescence lifetime: 1.81 ns
In CC(C)=O
  fluorescence lifetime: 1.77 ns
In CS(C)=O
  fluorescence lifetime: 2.03 ns
In Cc1ccccc1
  fluorescence lifetime: 2.57 ns
In ClC(Cl)Cl
  fluorescence lifetime: 1.93 ns
In ClCCl
  fluorescence lifetime: 1.84 ns

## F[B-]1(F)OC(c2ccc(C(F)(F)F)cc2)=Cc2ccc3ccccc3[n+]21
In ClC(Cl)Cl
  fluorescence lifetime: 0.92 ns

## c1ccc(-c2nc(-c3ccccc3)nc(-c3ccc(-c4ccc(N5c6ccccc6[Si](c6ccccc6)(c6ccccc6)c6ccccc65)cc4)cc3)n2)cc1
[1]
  fluorescence lifetime: 6 ns

## CN(C)c1ccc(-c2cc(-c3ccc(C#N)cc3)nc(-c3ccccc3)n2)cc1
In ClC(Cl)Cl
  fluorescence lifetime: 3.5 ns

## Cc1cc2nc3[nH]c(=O)n(C)c(=O)c3nc2cc1C
In CC#N
  fluorescence lifetime: 0.64 ns

## CCN(CC)c1ccc2cc(/C=C/c3ccccc3)c(=O)oc2c1
In CC#N
  fluorescence lifetime: 2.25 ns

## CCCCCCN1C(=O)C(c2ccc(-n3c4ccccc4c4ccccc43)cc2)=C(c2ccc(-n3c4ccccc4c4ccccc43)cc2)C1=O
In ClC(Cl)Cl
  fluorescence lifetime: 5.4 ns
In c1ccc2c(c1)c1ccccc1n2-c1ccc(-c2ccc(-n3c4ccccc4c4ccccc43)cc2)cc1
  fluorescence lifetime: 4 ns

## CCCCC(CC)CN1C(=O)c2cc(Oc3ccc(C(C)(C)C)cc3)c3c4c(Cl)cc5c6c(cc(Cl)c(c7c(Oc8ccc(C(C)(C)C)cc8)cc(c2c37)C1=O)c64)C(=O)N(c1c(C(C)C)cccc1C(C)C)C5=O (centres undefined)
In Cc1ccccc1
  fluorescence lifetime: 6.73 ns

## Cc1ccc(S(=O)(=O)/N=c2\oc3cccc4c5c(-c6ccccc6)oc6cccc(c(c2-c2ccccc2)c34)c65)cc1
In ClC(Cl)Cl
  fluorescence lifetime: 3.4 ns

## COc1ccc2c(c1)c(C#N)cc1c(OC)c(OC)c3cc(C#N)c4cc(OC)ccc4c3c12
In ClC(Cl)Cl
  fluorescence lifetime: 6 ns

## CCCCCCN1C(=O)c2cccc3cc(/N=C\c4ccc(N5CCOCC5)cc4)cc(c23)C1=O
In ClC(Cl)Cl
  fluorescence lifetime: 3.84 ns

## Oc1ccccc1/C=N/c1ccccc1/N=C/c1ccccc1O
In CC#N
  fluorescence lifetime: 0.0089 ns

## F[B-]1(F)n2cccc2C=C2C=CC=[N+]21
In C1CCCCC1
  fluorescence lifetime: 6.47 ns
In CC(C)=O
  fluorescence lifetime: 7.12 ns
In CCCCCC
  fluorescence lifetime: 6.79 ns
In CCO
  fluorescence lifetime: 7.02 ns
In CCOC(C)=O
  fluorescence lifetime: 6.9 ns
In CO
  fluorescence lifetime: 7.35 ns and 7.33 ns
In ClCCl
  fluorescence lifetime: 6.78 ns
In OCC(F)(F)F
  fluorescence lifetime: 8.23 ns

## COc1ccc(-c2ccc3c(c2)c2cc(-c4ccc(OC)cc4)ccc2n3-c2ccc(C(=O)c3ccc4sc5ccccc5c4c3)cn2)cc1
[1]
  fluorescence lifetime: 5.9 ns

## CN(C)c1ccc(/C=C/C(=C(C#N)C#N)c2ccc3c4c(cccc24)CC3)cc1
In C1CCOC1
  fluorescence lifetime: 5.2 ns
In CC#N
  fluorescence lifetime: 2.25 ns
In CC(C)=O
  fluorescence lifetime: 3.84 ns
In CCOC(C)=O
  fluorescence lifetime: 4.98 ns
In CN(C)C=O
  fluorescence lifetime: 3.31 ns
In CO
  fluorescence lifetime: 2.85 ns
In Cc1ccccc1
  fluorescence lifetime: 3.92 ns
In ClC(Cl)Cl
  fluorescence lifetime: 4.27 ns

## CCCCCCCCN1c2ccccc2Sc2cc(/C=C/c3ccc(N(c4ccc(/C=C/c5ccc6c(c5)Sc5ccccc5N6CCCCCCCC)cc4)c4ccc(/C=C/c5ccc(/C=C/c6ccc(N(c7ccc(/C=C/c8ccc9c(c8)Sc8ccccc8N9CCCCCCCC)cc7)c7ccc(/C=C/c8ccc9c(c8)Sc8ccccc8N9CCCCCCCC)cc7)cc6)c6nsnc56)cc4)cc3)ccc21
In C1CCOC1
  fluorescence lifetime: 1.45 ns
In CCOC(C)=O
  fluorescence lifetime: 1.83 ns
In Cc1ccccc1
  fluorescence lifetime: 3.53 ns
In ClC(Cl)Cl
  fluorescence lifetime: 2.25 ns
In ClCCl
  fluorescence lifetime: 2 ns

## COc1ccc(-c2csc(/C(C#N)=C/c3ccc(Cl)cc3Cl)n2)cc1
In CC#N
  fluorescence lifetime: 3.05 ns

## c1ccc(N2c3ccc4ccccc4c3-c3c4ccccc4cc[n+]3[B-]2(c2ccccc2)c2ccccc2)cc1
In Cc1ccccc1
  fluorescence lifetime: 6.31 ns

## CCN1C(=CC2=C([O-])C(=CC3=[N+](CC)c4ccccc4C3(C)C)C2=O)C(C)(C)c2ccccc21
In CO
  fluorescence lifetime: 0.2 ns
In ClC(Cl)Cl
  fluorescence lifetime: 1.52 ns

## CC1(C)CC(/C=C/c2ccc(N3CCOCCOCCOCCOCC3)cc2)=CC(=C(C#N)C#N)C1
In CCO
  fluorescence lifetime: 0.79 ns

## C(/C=C/c1ccc(-n2c3ccccc3c3ccccc32)cc1)=C\c1ccncc1
In C1COCCO1
  fluorescence lifetime: 1.32 ns
In CC#N
  fluorescence lifetime: 2.52 ns

## Nc1ccc2c(c1)C(=O)N(C13C[C@H]4C[C@@H](C1)C[C@@H](C3)C4)C2=O
In C1CCCCC1
  fluorescence lifetime: 10.7 ns
In C1CCOC1
  fluorescence lifetime: 18.2 ns
In CC#N
  fluorescence lifetime: 19 ns
In CCOC(C)=O
  fluorescence lifetime: 17 ns
In CO
  fluorescence lifetime: 9.49 ns
In CS(C)=O
  fluorescence lifetime: 22.4 ns
In Cc1ccccc1
  fluorescence lifetime: 17.3 ns
In ClCCl
  fluorescence lifetime: 24.6 ns

## CCOc1cccc(-c2nc3c(c4c2-c2ccccc2CC4)-c2ccccc2CC3)c1O
In ClCCl
  fluorescence lifetime: 0.65 ns

## CCCCCCN1C(=O)c2cccc3c(-c4cc5ccccc5s4)ccc(c23)C1=O
In ClC(Cl)Cl
  fluorescence lifetime: 0.86 ns

## c1ccc(-c2cc3c(-c4ccccc4)c4cccc5c(-c6ccccc6)cc6c(-c7ccccc7)c7cccc2c7c3c6c54)cc1
In ClCCl
  fluorescence lifetime: 2.97 ns
